Source: patent publication US11299496B2, “Ligands for alpha-7 nicotinic acetylcholine receptors and methods of treating neurological and inflammatory conditions” (Northeastern University, priority 2014, dated 2022)

Biological target: T1, human alpha-7 nAChR (Homo sapiens, UniProt P36544)
T1 construct: expressed in transfected cells; host or cells: Xenopus laevis oocytes (cRNA injection)
Assay: Two-electrode voltage clamp of alpha-7 nAChR expressed in Xenopus oocytes (net charge)
Format: cell-based
Conditions: area under the curve of current vs. time; for Charge Alone: compound alone acting as an allosteric agonist; for Charge +C: compound together with choline or ACh, includes PAM and ago-PAM activity; call rule not given here
Procedure: The human alpha-7 nAChR receptor clone was obtained from Dr. Jon Lindstrom {University of Pennsylvania, Philadelphia, Pa.), aid the RIC-3 clone from Dr. Millet Treinin (Hebrew University, Jerusalem, Israel) for the purpose of co-injection with a7 to improve the level and speed of receptor expression (Halevi et al., 2003). After linearization and purification of cloned cDNA's, RNA, transcripts were prepared rising the appropriate mMessage mMachine kit tiom Ambion (Austin, Tex.).
Expression in X, laeivis Oocytes
Oocytes were obtained from mature (>9 cm) female Xenopus laeivis African frogs (Nasco, Ft. Atkinson, Wis.). Frogs were anesthetized in 0.7 g/L solution of ethyl 3-aminobenzoate methanesulfonate buffered with sodium bicarbonate, and oocytes were surgically removed through an abdominal incision. Harvested oocytes were treated with 1.25 mg/ml collagenase (Worthington Biochemicals, Freehold, N.J.) in calcium-free Barth's solution (88 mM NaCl, 1 mM KCl, 2.38 mM NaHCO3, 0.82 mM MgSO4, 15 mM HEPES, 12 mg/L tetracycline, pH 7.6) for 3-4 hours to remove the follicular layer. Stage-5 oocytes were isolated and injected with 50 nL (5-20 ng) of human alpha-7 and RIC-3 cRNA. Suitable levels of receptor expression were typically achieved 2-6 days after injection of cRNA. For experiments involving the PAM 4BP-TQS/GAT-107, where standard levels of expression result in ion currents too large to be recorded in voltage clamp, experiments were typically conducted 1-3 days after RNA injection.
Two-electrode voltage clamp experiments were conducted using OpusXpress6000A (Molecular Devices, Sunnyvale, Calif.), an integrated system that provides automated impalement and voltage clamp of up to eight oocytes in parallel. Both the current and voltage electrodes were filled with 3 M KCl, and oocytes were clamped at a holding potential of −60 mV. Data were collected at 50 Hz and filtered at 20 Hz. The oocytes were bath-perfused with Ringer's solution (115 mM NaCl, 10 mM HEPES, 2.5 mM KCl, 1.8 mM CaCl2, pH 7.3), and agonist solutions were delivered from a 96-well drug plate using disposable tips. Flow rates were set at 2 mL/min, with each drug or control solution delivered in 12 s durations, followed˜by 181 s washouts with Ringer's unless noted otherwise.
Experimental Protocols and Data Analysis
Responses of human alpha-7 receptors to agonists were measured as both peek current and net charge measured over a 120 s period beginning with the compound application (Papke and Papke, 2002). […] In experiments involving positive allosteric modulators (PAMs), the fast desensitization of alpha-7 was eliminated, allowing peak currents to be used as a valid measurement of the receptor-mediated responses (Wang et al., 2012; Williams et al., 2011).
Oocytes received two control ACh applications prior to receiving any drug in order to establish a steady reference response, and they received one or more control ACh applications at the end of all experiments. For experiments involving drug incubation through bath applications, all responses were normalized to the average of two ACh control responses taken immediately prior to the switch of bath solution, for each cell individually. These normalization procedures had the effect of compensating for differing levels of receptor expression among the multiple oocytes used in each experiment. Each experiment was conducted on at least four oocytes, with mean values and standard errors (S.E.M.) calculated from their normalized responses. […]

T1 sequence (P36544 23-502): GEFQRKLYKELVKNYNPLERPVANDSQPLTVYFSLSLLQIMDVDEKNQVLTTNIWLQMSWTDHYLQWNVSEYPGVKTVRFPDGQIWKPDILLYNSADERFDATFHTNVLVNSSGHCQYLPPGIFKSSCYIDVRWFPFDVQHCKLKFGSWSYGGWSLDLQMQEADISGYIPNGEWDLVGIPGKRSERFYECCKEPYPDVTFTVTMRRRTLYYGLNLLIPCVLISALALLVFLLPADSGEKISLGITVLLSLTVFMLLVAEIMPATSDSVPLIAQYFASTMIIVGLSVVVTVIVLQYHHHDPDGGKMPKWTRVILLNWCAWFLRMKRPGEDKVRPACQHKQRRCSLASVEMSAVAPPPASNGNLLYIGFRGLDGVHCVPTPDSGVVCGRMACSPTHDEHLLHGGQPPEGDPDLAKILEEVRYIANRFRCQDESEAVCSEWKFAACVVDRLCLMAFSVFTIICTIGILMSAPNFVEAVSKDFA

SMILES | Charge Alone | Charge +C
NS(=O)(=O)c1ccc2c(c1)[C@H]1C=CC[C@H]1[C@@H](c1ccoc1)N2 (stereo in doubt) [Compound 14, 4-(furan-3-yl)-3a,4,5,9b-tetrahydro-3H-cyclopenta[c]quinoline-8-sulfonamide] | Inactive | Inactive
NS(=O)(=O)c1ccc2c(c1)[C@H]1C=CC[C@H]1[C@@H](c1ccc(Br)nc1)N2 [Compound 94, 4-(6-bromopyridin-3-yl)-3a,4,5,9b-tetrahydro-3H-cyclopenta[c]quinoline-8-sulfonamide] | 29 | 348
NS(=O)(=O)c1ccc2c(c1)[C@H]1C=CC[C@H]1[C@@H](c1csc(Br)n1)N2 (stereo in doubt) [Compound 85, 4-(2-bromothiazol-4-yl)-3a,4,5,9b-tetrahydro-3H-cyclopenta[c]quinoline-8-sulfonamide] | 10 | 166
O=S(=O)(c1ccc2c(c1)[C@H]1C=CC[C@H]1[C@@H](c1ccc(Br)cc1)N2)N1CCC1 [Compound 54, 8-(azetidin-1-ylsulfonyl)-4-(4-bromophenyl)-3a,4,5,9b-tetrahydro-3H-cyclopenta[c]quinolone] | Inactive | Inactive
CC(C)(C)CC(=O)Oc1ccc([C@H]2Nc3ccc(S(N)(=O)=O)cc3[C@H]3C=CC[C@H]32)cc1 (stereo in doubt) [Compound 69, 4-(8-sulfamoyl-3a,4,5,9b-tetrahydro-3H-cyclopenta[c]quinolin-4-yl)phenyl 3,3-dimethylbutanoate] | 25 | 582
COC(=O)Nc1ccc([C@H]2Nc3ccc(S(N)(=O)=O)cc3[C@H]3C=CC[C@H]32)cc1 [Compound 59, methyl(4-(8-sulfamoyl-3a,4,5,9b-tetrahydro-3H-cyclopenta[c]quinolin-4-yl)phenyl)carbamate] |  | 480
[N-]=[N+]=Nc1ccc([C@H]2Nc3ccc(S(N)(=O)=O)cc3[C@H]3C=CC[C@H]32)cc1 [Compound 48, (3aR,4S,9bS)-4-(4-azidophenyl)-3a,4,5,9b-tetrahydro-3H-cyclopenta[c]quinoline-8-sulfonamide] | 61 | 764
N#Cc1ccc([C@H]2Nc3ccc(S(N)(=O)=O)cc3[C@H]3C=CC[C@H]32)s1 [Compound 34, 4-(5-cyanothiophen-2-yl)-3a,4,5,9b-tetrahydro-3H-cyclopenta[c]quinoline-8-sulfonamide] | Insoluble | Insoluble
CC(=O)NS(=O)(=O)c1ccc2c(c1)[C@H]1C=CC[C@H]1[C@@H](c1ccc(Br)cc1)N2 (stereo in doubt) [Compound 116, N-((4-(4-bromophenyl)-3a,4,5,9b-tetrahydro-3H-cyclopenta[c]quinolin-8-yl)sulfonyl)acetamide] | Inactive | Inactive
CC(C)NS(=O)(=O)c1ccc2c(c1)[C@H]1C=CC[C@H]1[C@@H](c1ccc(Br)cc1)N2 (stereo in doubt) [Compound 100, 4-(4-bromophenyl)-N-isopropyl-3a,4,5,9b-tetrahydro-3H-cyclopenta[c]quinoline-8-sulfonamide] | Inactive | Inactive
NS(=O)(=O)c1ccc2c(c1)[C@H]1C=CC[C@H]1[C@@H](c1ccncc1)N2 (stereo in doubt) [Compound 2, 4-(pyridin-4-yl)-3a,4,5,9b-tetrahydro-3H-cyclopenta[c]quinoline-8-sulfonamide] | Inactive | Inactive
NS(=O)(=O)c1ccc2c(c1)N[C@H](c1ccc(Br)cc1)[C@@H]1CC=C[C@H]21 (stereo in doubt) [Compound 10, 4-(4-bromophenyl)-3a,4,5,9b-tetrahydro-3H-cyclopenta[c]quinoline-7-sulfonamide] | Inactive | Inactive
NS(=O)(=O)c1ccc2c(c1)[C@H]1C=CC[C@H]1[C@@H](C1CCCCC1)N2 (stereo in doubt) [Compound 19, 4-cyclohexyl-3a,4,5,9b-tetrahydro-3H-cyclopenta[c]quinoline-8-sulfonamide] | Inactive | Inactive
NS(=O)(=O)c1ccc2c(c1)[C@H]1C=CC[C@H]1[C@@H](c1ccc(NC(=O)OC3CCCCC3)cc1)N2 (stereo in doubt) [Compound 61, cyclohexyl(4-(8-sulfamoyl-3a,4,5,9b-tetrahydro-3H-cyclopenta[c]quinolin-4-yl)phenyl)carbamate] |  | 85
[N-]=[N+]=Nc1ccc([C@H]2Nc3ccc(S(N)(=O)=O)cc3[C@H]3C=CC[C@H]32)cc1 (stereo in doubt) [Compound 25, 4-(4-azidophenyl)-3a,4,5,9b-tetrahydro-3H-cyclopenta[c]quinoline-8-sulfonamide] | 61 | 
NS(=O)(=O)c1ccc2c(c1)[C@H]1C=CC[C@H]1[C@@H](c1ccc(NC(=O)OC34CC5CC(CC(C5)C3)C4)cc1)N2 (stereo in doubt) [Compound 62, adamantan-1-yl (4-(8-sulfamoyl-3a,4,5,9b-tetrahydro-3H-cyclopenta[c]quinolin-4-yl)phenyl)carbamate] |  | 35
NS(=O)(=O)c1ccc2c(c1)[C@@H]1C=CC[C@@H]1[C@H](c1ccc(I)cc1)N2 [Compound 45, (3aS,4R,9bR)-4-(4-iodophenyl)-3a,4,5,9b-tetrahydro-3H-cyclopenta[c]quinoline-8-sulfonamide] | Inactive | Inactive
NS(=O)(=O)c1ccc2c(c1)[C@H]1OCC[C@H]1[C@@H](c1ccc(Br)cc1)N2 (stereo in doubt) [Compound 3, 4-(4-bromophenyl)-2,3,3a,4,5,9b-hexahydrofuro[3,2-c]quinoline-8-sulfonamide] | Inactive | Inactive
NS(=O)(=O)c1ccc2c(c1)[C@H]1C=CC[C@H]1[C@@H](c1ccc(C3(C(F)(F)F)N=N3)cc1)N2 [Compound 44, (3aR,4S,9bS)-4-(4-(3-(trifluoromethyl)-3H-diazirin-3-yl)phenyl)-3a,4,5,9b-tetrahydro-3H-cyclopenta[c]quinoline-8-sulfonamide] | 14 | 350
NS(=O)(=O)c1ccc2c(c1)[C@H]1C=CC[C@H]1[C@@H](c1ccc(Br)cn1)N2 (stereo in doubt) [Compound 97, 4-(5-bromopyridin-2-yl)-3a,4,5,9b-tetrahydro-3H-cyclopenta[c]quinoline-8-sulfonamide] | 7 | 357
O=C(O)c1ccc2c(c1)[C@H]1C=CC[C@H]1[C@@H](c1ccc(Cl)cc1Cl)N2 [Compound 29, 4-(2,4-dichlorophenyl)-3a,4,5,9b-tetrahydro-3H-cyclopenta[c]quinoline-8-carboxylic acid] | Inactive | Inactive
O=S(=O)(NC1CCCCC1)c1ccc2c(c1)[C@H]1C=CC[C@H]1[C@@H](c1ccc(Br)cc1)N2 (stereo in doubt) [Compound 102, 4-(4-bromophenyl)-N-cyclohexyl-3a,4,5,9b-tetrahydro-3H-cyclopenta[c]quinoline-8-sulfonamide] | Inactive | Inactive
NS(=O)(=O)c1ccc2c(c1)[C@H]1C=CC[C@H]1[C@@H](c1ccc(-c3ccccc3)cc1)N2 (stereo in doubt) [Compound 12, 4-([1,1′-biphenyl]-4-yl)-3a,4,5,9b-tetrahydro-3H-cyclopenta[c]quinoline-8-sulfonamide] |  | 76
CCNS(=O)(=O)c1ccc2c(c1)[C@H]1C=CC[C@H]1[C@@H](c1ccc(Br)cc1)N2 [Compound 114] | Inactive | Inactive
